According to patent US4560677A, “Synergistic avermectin combination for treating plant pests” (Merck & Co., Inc., priority 1984, dated 1985):
Read-outs that look alike come from different tables or passages of the source.

Columns and labels:
2-spotted spider mites [1] = experiment: Residual activity on bean leaves against 2-spotted spider mites (Table X); type: in vivo; conditions: Tetranychus urticae
Protocol: (§1) A solution of Triton X-155 in acetone (1000 ppm) was used to dissolve the material under test and the resultant solution was diluted with water to obtain a mixture of 10% acetone and 100 ppm of Triton X-155 in water. Further dilution of this stock solution as required in a test was done by using Triton X-155 at 100 ppm in water so that a constant ratio of the surfactant was maintained at all levels. Where emulsifiable oil was used in the treatments, the solutions were prepared in such a way that the final solutions contained 0.06% v/v of the oil.
(§2) Leaves of Sieva bean plants grown from seeds planted 14-21 days earlier were used in all the tests. Twospotted spider mites (Tetranychus urticae) were cultured continuously on sieva bean plants growing in an insectary under continuous lighting at 75° F.
On Day 0, eight uninfested leaves were treated by immersion in the treatment solution. On Day 7, all the leaves were infested with a mixed population of mites. On Day 13, mortality was assessed on four of the leaves and on Day 19 on the remaining four leaves.

citrus rust mites = experiment: Field experiment, citrus rust mite on pink grapefruit in Florida (Table XI); type: in vivo, Phyllocoptruta oleivora
Protocol: Citrus (pink grapefruit) trees (which were 5-7 years old) infested with citrus rust mites (Phyllocoptrura oleivora) were sprayed using a hydraulic handgun at 250 psi. Each tree was sprayed until runoff.
Each treatment consisted of three replicates. Thirty-three leaves from each tree were evaluated for percent leaf area not infested by mites. These evaluations were done before the application of treatments and 7 and 14 days after the application of treatments.

2-spotted spider mites [2] = experiment: Contact activity on bean leaves against 2-spotted spider mites (Table X); type: in vivo, Tetranychus urticae; conditions: for mortality at 0.015 ppm / mortality at 0.04 ppm / mortality at 0.06 ppm / mortality at 0.25 ppm: Tetranychus urticae
Protocol: as §1, §2
On day 0, eight leaves which had been infested with mites 24 hours earlier were dipped in the treatment solution. On Day 5, mortality was assessed on four of the leaves and on Day 12 on the remaining four leaves.

[3] = 144 h, read-out: mortality, adults
[4] = 144 h, read-out: mortality, nymphs
[5] = 288 h, read-out: mortality, adults
[6] = 288 h, read-out: mortality, larvae
[7] = 288 h, read-out: mortality, nymphs
[8] = 120 h, read-out: mortality, adults

## CC1=C[C@H]2C(=O)O[C@H]3C[C@@H](C/C=C(\C)C[C@@H](C)/C=C/C=C4\CO[C@H]([C@@H]1O)[C@@]42O)O[C@@]1(CC[C@H](C)[C@@H](C(C)C)O1)C3 [Milbemycin B-41D, 13-deoxy-22,23-dihydro avermectin B1b aglycone]
2-spotted spider mites [1]; [3]
  mortality at 0.25 ppm: 0%
  mortality at 1 ppm: 0%
  mortality at 4 ppm: 6%
  mortality at 16 ppm: 50%
2-spotted spider mites [1]; [4]
  mortality at 0.25 ppm: 0%
  mortality at 1 ppm: 0%
  mortality at 4 ppm: 0%
  mortality at 16 ppm: 57%
2-spotted spider mites [1]; [5]
  mortality at 0.25 ppm: 0%
  mortality at 1 ppm: 0%
  mortality at 4 ppm: 15%
  mortality at 16 ppm: 88%
2-spotted spider mites [1]; [6]
  mortality at 0.25 ppm: 0%
  mortality at 1 ppm: 0%
  mortality at 4 ppm: 53%
  mortality at 16 ppm: 100%
2-spotted spider mites [1]; [7]
  mortality at 0.25 ppm: 0%
  mortality at 1 ppm: 0%
  mortality at 4 ppm: 2%
  mortality at 16 ppm: 78%
Citrus rust mites; 0.04 oz ai/100 gal, 7 days after treatment
  Percent control: 14%
Citrus rust mites; 0.04 oz ai/100 gal, 14 days after treatment
  Percent control: 13%
Citrus rust mites; 0.2 oz ai/100 gal, 7 days after treatment
  Percent control: 16%
Citrus rust mites; 0.2 oz ai/100 gal, 14 days after treatment
  Percent control: 18%
2-spotted spider mites [2]; [8]
  mortality at 0.015 ppm: 66%
  mortality at 0.04 ppm: 79%
  mortality at 0.06 ppm: 92%
  mortality at 0.25 ppm: 100%
2-spotted spider mites [2]; [5]
  mortality at 0.015 ppm: 0%
  mortality at 0.04 ppm: 0%
  mortality at 0.06 ppm: 38%
  mortality at 0.25 ppm: 43%
2-spotted spider mites [2]; [6]
  mortality at 0.015 ppm: 0%
  mortality at 0.04 ppm: 0%
  mortality at 0.06 ppm: 91%
  mortality at 0.25 ppm: 100%
2-spotted spider mites [2]; [7]
  mortality at 0.015 ppm: 0%
  mortality at 0.04 ppm: 0%
  mortality at 0.06 ppm: 56%
  mortality at 0.25 ppm: 67%
2-spotted spider mites [2]; avermectin B1a/B1b versus milbemycin B-41D
  potency in short term contact studies: comparable potency
